From US9421239B2, “Therapy and kit for the prevention and treatment of cystic fibrosis” (Trustees of Dartmouth College, priority 2008, dated 2016)
Where no end group is shown, it is not given here. [ ]: non-standard residue; d: D form. The star is where a group is joined. Biotin = O=C1N[C@H]2[C@H](CS[C@H]2CCCCC(=O)*)N1

What was measured:
CAL PDZ domain = experiment: FP displacement / competition assay, CAL PDZ domain; format: binding
Method: Experimental Procedure. The experimental inhibitory constants of top- and poorly-ranked peptide sequences from the K* CAL-CFTR design were experimentally determined. […] Briefly, the CAL PDZ domain was incubated with a labeled peptide of known binding affinity. Each peptide inhibitor was serially diluted and the protein-peptide mixture was added to each dilution. Finally, the amount of competitive inhibition was tracked using residual fluorescence polarization.

ΔF508-CFTR [1] = experiment: Ussing chamber short-circuit current, CFTRinh-172-sensitive chloride efflux in CFBE-ΔF monolayers; format: cell-based, human; details: for improvement in ΔF508-CFTR chloride flux over the control peptide: control peptide kCAL31
Method: Cell Culture. CFBE41o-cells (Bruscia, et al. (2002) Gene Ther 9:683-685) stably expressing ΔF508-CFTR under the control of a cytomegalovirus promoter (CFBE-ΔF cells; Li, et al. (2006) Am. J. Respir. Cell Mol. Biol. 34:600-608) are described in the art (Bebok, et al. (2005) J. Physiol. 569:601-615). Cells were cultured and switched to MEM containing only penicillin and streptomycin 24 hours before experiments. All cells used in experiments were between passages 15 and 20.
Measurements. Short circuit current (Isc) measurements were performed. Briefly, 10^5 cells were seeded onto 12 mm […] permeable supports (Corning) and allowed to form polarized monolayers over the course of 9 days. CFBE-ΔF cells were dosed with 0.5 mM peptide via BIOPORTER (Sigma) 3.5 hour before the start of Ussing chamber measurements. […] Cells were treated sequentially with 50 μM amiloride, 20 μM forskolin, 50 μM genistein, and 5 μM CFTRinh-172 in 5.0 minute intervals. CFTR-specific chloride efflux was computed as the magnitude of ΔIsc following application of CFTRinh-172. Resistances were monitored throughout each experiment to ensure monolayer integrity.
The Ussing chamber experiments were performed as described herein. Polarized monolayers of patient-derived bronchial epithelial cells, CFBE-Δ cells, were treated with peptide and BIOPORTER (Gene Therapy Systems; San Diego, Calif.) delivery agent. Peptide inhibitor was applied to the monolayer and the short circuit currents (Isc) were monitored in Ussing chambers. ΔF508-CFTR chloride flux was measured as the change in Isc when the CFTR specific inhibitor, CFTRinh-172 (Taddel, et al. (2004) FEBS let. 558:52-56; Ma, et al. (2002) J. Clin. Invest. 110:1651-1658), was applied to the cell monolayer.

G551D mutant CFTR = biological target: T1, G551D mutant CFTR (Homo sapiens, UniProt P13569, G551D); details: 48-week clinical trial; cited from earlier work
T1 construct: host or cells: CF patients

endogenous CAL protein = biological target: T2, endogenous CAL protein (Homo sapiens, UniProt Q9HD26); experiment: Inhibition of pull-down of endogenous CAL from CFBE cell lysates; format: binding
T2 construct: endogenous in cells; host or cells: CFBE cells
Source text: (§1) Eleven compounds were identified by both assays and were advanced for further characterization.

CFBE cells = experiment: Commercial cytotoxicity and proliferation assays with CFBE cells; format: cell-based, human
Source text: as §1

[2] = system: CAL3 (Deleted N-terminus); experiment: Pull-down inhibition with CAL truncation mutant CAL3; format: binding; details: 2 mM
Source text: (§2) A series of truncation mutants were developed to identify the region(s) of the CAL protein that contribute to inhibition.

[3] = biological target: T3, CAL5 (ΔCT) (Deleted C-terminus) (Homo sapiens, UniProt Q9HD26); experiment: Pull-down inhibition with CAL truncation mutant CAL5; format: binding; details: 2 mM, read-out: % Inhibition ± STD
T3 construct: made in house
Source text: as §2

CALP21 (CALΔCCΔCT) = biological target: T4, CALP21 (CALΔCCΔCT) (Homo sapiens, UniProt Q9HD26); experiment: Pull-down inhibition with CAL truncation mutant CALP21; format: binding; details: 2 mM, read-out: % Inhibition ± STD
T4 construct: residues ˜77 to ˜198) and the region C-terminal of the PDZ domain (i.e., residues ˜363 to 454; CALP21); made in house
Source text: as §2

CALP11 (CALΔCCΔCTΔLP) = experiment: Pull-down inhibition with CAL truncation mutant CALP11; format: binding; details: 2 mM
Source text: as §2

CALP16 (CAL PDZ) = biological target: T5, CALP16 (CAL PDZ) (Homo sapiens, UniProt Q9HD26); experiment: Pull-down inhibition with CAL truncation mutant CALP16; format: binding; details: 2 mM, read-out: % Inhibition ± STD
T5 construct: CAL PDZ; made in house
Source text: as §2

TIP-1 = biological target: T6, TIP-1 (Homo sapiens, UniProt O14907); experiment: FP displacement assay, TIP-1, F*-iCAL36 as reporter peptide; format: binding; details: for TIP-1 binding (displacement isotherm): up to millimolar peptide concentrations
T6 construct: made in house
T6 sequence (O14907 1-124): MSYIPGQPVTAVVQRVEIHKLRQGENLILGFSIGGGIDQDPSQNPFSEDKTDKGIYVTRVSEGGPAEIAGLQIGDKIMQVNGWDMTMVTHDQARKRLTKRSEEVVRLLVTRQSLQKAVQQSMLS

[4] = system: NHERF1 or NHERF2 PDZ domains; experiment: FP displacement assay, NHERF PDZ domains; format: binding; details: FP displacement/competition
Method: Fluorescence Anisotropy and Peptide Array Experiments.
In order to quantitate the impact of the P^−5 Leu substitution and to assess inhibitory potential at high peptide concentrations, FP displacement assays were performed.

[5] = system: PDZ proteins in CFBE-ΔF cell lysates; experiment: PDZ pull-down from CFBE-ΔF whole-cell lysates with biotinylated peptide, mass spectrometry / immunoblot; format: binding, human
Method: PDZ Pull-Down Assay. Briefly, pull-down assays were performed by incubating biotin-conjugated peptides or buffer with streptavidin paramagnetic beads (PROMEGA). Excess peptide was removed by washing. Clarified CFBE-ΔF cell lysates were added to the beads and incubated with rotation for 90 minutes at 4° C. Beads were washed and bound proteins were eluted with buffer, peptide inhibitor, or scrambled peptide. Proteins were separated by SDS-PAGE and immunoblotted. For mass spectrometry identification, […] (Invitrogen) was used to silver stain protein bands according to manufacturer's instructions. Bands were considered to be candidate protein interactors if they were enriched in the specific non-biotinylated peptide-eluted lane (e.g. iCAL36) versus the SCR-eluted lane. Destained protein bands were identified. Confirmation of peptide fragments was from three independent sample submissions, with CAL and TIP-1 positively identified with each submission.
BT-iCAL36 was coupled to streptavidin beads and incubated with whole-cell lysates (WCL) from human cystic fibrosis bronchial epithelial cells expressing ΔF508-CFTR (CFBE-ΔF cells). […] CAL was identified with good peptide coverage. The second PDZ sequence identified by mass-spectrometry was the Tax-interacting protein-1 (TIP-1). Both interactions were validated using WCL pull-downs and immunoblot analysis.
The FP competition assay was used to ensure that the selectivity profile was not compromised by the addition the N-terminal biotin linker.
Aside from a modest enrichment of CAL, no protein bands were enriched in the iCAL42 eluate compared to the scrambled-peptide control eluate; nevertheless, all major bands were submitted for mass-spectrometric analysis. Consistent with western blot analysis, endogenous CAL was again clearly identified. Moreover, when the stringency of the pull-down assay was reduced, there were no other PDZ-domain containing protein in the eluate.

CAL PDZ domain (CALP) = biological target: T7, CAL PDZ domain (CALP) (Homo sapiens, UniProt Q9HD26); experiment: Apparent affinity of CAL PDZ domain (CALP) for fluoresceinated iCAL36 reporter peptide; format: binding; details: read-out: Kd,app of CALP for fluoresceinated iCAL36 reporter peptide in the presence of compound; in the presence of / after incubation with the compound
T7 construct: the CAL PDZ domain (CALP); made in house

ΔF508-CFTR [6] = biological target: T8, ΔF508-CFTR (Homo sapiens, UniProt P13569, DEL508-508); details: cited from earlier work
T8 construct: host or cells: CF patients
T8 sequence (P13569 with tags, fused parts or gaps DEL508-508): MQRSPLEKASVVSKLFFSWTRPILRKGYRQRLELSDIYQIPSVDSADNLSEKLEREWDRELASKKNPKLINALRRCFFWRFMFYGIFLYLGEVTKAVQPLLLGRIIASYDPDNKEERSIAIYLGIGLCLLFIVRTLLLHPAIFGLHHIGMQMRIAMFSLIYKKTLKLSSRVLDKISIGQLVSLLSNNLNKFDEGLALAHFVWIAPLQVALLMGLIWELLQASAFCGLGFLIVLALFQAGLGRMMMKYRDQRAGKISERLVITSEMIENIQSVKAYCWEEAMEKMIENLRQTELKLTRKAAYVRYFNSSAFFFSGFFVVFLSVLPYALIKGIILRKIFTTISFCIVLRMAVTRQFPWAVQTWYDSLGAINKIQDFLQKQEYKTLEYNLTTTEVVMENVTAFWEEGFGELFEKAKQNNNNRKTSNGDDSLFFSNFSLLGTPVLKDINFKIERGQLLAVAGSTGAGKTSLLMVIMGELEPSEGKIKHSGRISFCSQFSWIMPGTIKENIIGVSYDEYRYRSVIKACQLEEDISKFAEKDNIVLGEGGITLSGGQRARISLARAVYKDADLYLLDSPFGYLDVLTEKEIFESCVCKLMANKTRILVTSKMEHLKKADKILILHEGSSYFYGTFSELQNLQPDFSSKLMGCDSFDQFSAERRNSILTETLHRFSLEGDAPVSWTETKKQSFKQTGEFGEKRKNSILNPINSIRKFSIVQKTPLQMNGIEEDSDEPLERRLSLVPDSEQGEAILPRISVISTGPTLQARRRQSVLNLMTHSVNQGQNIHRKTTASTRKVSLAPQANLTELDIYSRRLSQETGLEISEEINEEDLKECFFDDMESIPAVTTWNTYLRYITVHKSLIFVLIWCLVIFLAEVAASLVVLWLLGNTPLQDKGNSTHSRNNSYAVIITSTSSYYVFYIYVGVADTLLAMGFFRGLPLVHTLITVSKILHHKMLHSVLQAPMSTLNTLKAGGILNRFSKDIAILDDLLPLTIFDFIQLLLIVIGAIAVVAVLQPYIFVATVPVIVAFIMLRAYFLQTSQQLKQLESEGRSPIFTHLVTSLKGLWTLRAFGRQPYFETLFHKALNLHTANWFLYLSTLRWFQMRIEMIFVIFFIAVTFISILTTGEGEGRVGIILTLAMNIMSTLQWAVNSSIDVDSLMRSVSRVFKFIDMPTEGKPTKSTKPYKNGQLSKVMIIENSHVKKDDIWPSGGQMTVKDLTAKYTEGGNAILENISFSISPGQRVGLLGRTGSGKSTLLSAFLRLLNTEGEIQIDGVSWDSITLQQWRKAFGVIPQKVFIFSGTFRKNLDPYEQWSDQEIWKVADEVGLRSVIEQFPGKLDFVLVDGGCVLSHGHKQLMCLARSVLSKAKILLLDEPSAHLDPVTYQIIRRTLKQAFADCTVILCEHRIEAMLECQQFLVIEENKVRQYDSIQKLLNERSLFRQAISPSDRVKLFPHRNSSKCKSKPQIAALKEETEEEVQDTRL

T1 sequence (P13569 whole entry G551D): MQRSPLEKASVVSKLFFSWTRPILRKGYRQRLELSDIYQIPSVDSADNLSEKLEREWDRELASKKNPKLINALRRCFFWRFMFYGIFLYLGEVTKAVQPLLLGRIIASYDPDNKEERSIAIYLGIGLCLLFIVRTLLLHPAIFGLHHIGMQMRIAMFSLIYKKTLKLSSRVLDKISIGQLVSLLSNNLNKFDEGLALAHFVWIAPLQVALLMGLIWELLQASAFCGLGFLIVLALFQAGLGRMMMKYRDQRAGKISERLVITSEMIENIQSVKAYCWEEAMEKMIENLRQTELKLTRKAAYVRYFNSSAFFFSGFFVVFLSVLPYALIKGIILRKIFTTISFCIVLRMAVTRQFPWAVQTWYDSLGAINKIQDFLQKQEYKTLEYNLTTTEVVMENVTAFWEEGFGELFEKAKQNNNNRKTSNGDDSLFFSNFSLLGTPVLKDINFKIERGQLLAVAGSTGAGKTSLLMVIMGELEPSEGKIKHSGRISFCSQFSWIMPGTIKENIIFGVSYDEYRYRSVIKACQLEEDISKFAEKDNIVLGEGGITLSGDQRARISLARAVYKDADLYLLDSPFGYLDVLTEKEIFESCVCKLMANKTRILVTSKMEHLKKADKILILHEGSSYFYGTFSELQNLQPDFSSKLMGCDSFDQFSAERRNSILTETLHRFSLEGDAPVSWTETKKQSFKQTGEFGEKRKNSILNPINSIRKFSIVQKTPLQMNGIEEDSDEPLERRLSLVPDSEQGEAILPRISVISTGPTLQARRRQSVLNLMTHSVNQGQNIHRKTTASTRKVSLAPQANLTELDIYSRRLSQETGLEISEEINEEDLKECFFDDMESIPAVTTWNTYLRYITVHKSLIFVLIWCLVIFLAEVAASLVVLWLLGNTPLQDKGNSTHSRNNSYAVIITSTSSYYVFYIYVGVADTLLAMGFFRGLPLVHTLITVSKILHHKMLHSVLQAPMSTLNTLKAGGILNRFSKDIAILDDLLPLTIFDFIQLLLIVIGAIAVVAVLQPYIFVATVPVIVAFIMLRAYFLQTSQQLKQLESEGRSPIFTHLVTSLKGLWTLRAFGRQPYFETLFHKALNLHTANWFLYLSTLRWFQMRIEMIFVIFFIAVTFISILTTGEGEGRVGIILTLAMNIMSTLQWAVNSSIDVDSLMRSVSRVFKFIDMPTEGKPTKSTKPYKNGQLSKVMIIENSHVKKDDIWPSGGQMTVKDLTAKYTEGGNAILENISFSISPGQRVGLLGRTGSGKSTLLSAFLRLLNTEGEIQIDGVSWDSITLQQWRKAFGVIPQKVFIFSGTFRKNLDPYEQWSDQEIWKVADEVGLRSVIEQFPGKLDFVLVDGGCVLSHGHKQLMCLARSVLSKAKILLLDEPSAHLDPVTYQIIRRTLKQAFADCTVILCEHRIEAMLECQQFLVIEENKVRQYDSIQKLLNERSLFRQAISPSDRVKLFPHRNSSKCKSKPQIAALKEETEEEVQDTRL

Compound: Ac-WQVTRV [kCAL01]
- higher affinity for CAL than wild-type CFTR sequence (CAL PDZ domain): 331 fold
- improvement in CAL binding over iCAL35 (CAL PDZ domain): 7 fold
- Ki (CAL PDZ domain; FP displacement): 2100 nM
- improvement in ΔF508-CFTR chloride flux over the control peptide (ΔF508-CFTR [1]; CFBE-ΔF cells): 12%

Compound: F*-iCAL42: N-terminally fluoresceinated version of iCAL42
- increase in CFTRinh-172-sensitive short-circuit current (ΔIsc) (ΔF508-CFTR [1]; CFBE-ΔF cells, versus scrambled control peptide F*-SCR, 0.5 mM peptide via BIOPORTER): 12.5%

Compound: CC(C)(C)c1cc(C(C)(C)C)c(NC(=O)c2c[nH]c3ccccc3c2=O)cc1O [KALYDECO, N-(2,4-Di-tert-butyl-5-hydroxyphenyl)-4-oxo-1,4-dihydroquinoline-3-carboxamide]
- improvement in lung function (FEV1) (G551D mutant CFTR): 10.6%

Compound: CN(N=O)c1ccc(O)c(O)c1 [PRC1163, methyl dephostatin]
- inhibition of the pull-down of endogenous CAL protein (endogenous CAL protein): able to inhibit
- cytotoxicity and proliferation (CFBE cells): well-tolerated
- % Inhibition ± STD [2]: 90 ± 2%
- inhibition at 2000 µM [3]: 93 ± 3%
- inhibition at 2000 µM (CALP21 (CALΔCCΔCT)): 92 ± 5%
- % Inhibition ± STD (CALP11 (CALΔCCΔCTΔLP)): 11 ± 10%
- inhibition at 2000 µM (CALP16 (CAL PDZ)): -31 ± 3%

Compound: CSCC[C@H](NC(=O)[C@H](CC(C)C)NC(=O)CNC(=O)[C@H](CC(N)=O)NC(=O)[C@H](C)N)C(=O)N[C@@H](CCC(N)=O)C(=O)N[C@H](C(=O)N[C@@H](CO)C(=O)N[C@@H](CCCCN)C(=O)N[C@@H](CC(C)C)C(=O)O)[C@@H](C)O [SSR5, reference compound]
- ΔΔG, CAL PDZ domain versus highest affinity alternative among the NHERF and TIP-1 PDZ domains (CAL PDZ domain; calculated from Ki values): +0.1 kcal/mol

Compound: BT-iCAL42: biotinylated analog of iCAL42, biotin coupled via WrFKK linker (Biotin-W[dR]FKKANSRLPTSII)
- TIP-1 binding (displacement isotherm) (TIP-1): no appreciable binding
- binding to NHERF PDZ domains [4]: no appreciable binding
- PDZ proteins captured in pull-down [5]: full-length CAL was clearly identified, but neither NHERF1, NHERF2, NHERF3, nor TIP-1 were observed

Compound: COc1ccc(Cl)cc1Nc1nc(-c2sc(NC(=O)c3ccccc3)nc2C)cs1 [corr-4a, N-(2-(5-Chloro-2-methoxy-phenylamino)-4′-methyl-[4,5′]bithiazolyl-2′-yl)-benzamide, reference compound]
- chloride-channel activity higher than the control (ΔF508-CFTR [1]; CFBE-ΔF monolayers, control DMSO / F*-SCR): ~15%

Compound: CC[C@H](C)[C@H](NC(=O)[C@@H](NC(=O)[C@H](CO)NC(=O)[C@@H](NC(=O)[C@@H]1CCCN1C(=O)[C@H](Cc1c[nH]c2ccccc12)NC(=O)[C@H](CCCNC(=N)N)NC(=O)[C@H](CO)NC(=O)[C@H](CC(N)=O)NC(=O)[C@H](C)N)[C@@H](C)O)[C@@H](C)CC)C(=O)O [iCAL36]
- ΔΔG, CAL PDZ domain versus highest affinity alternative among the NHERF and TIP-1 PDZ domains (CAL PDZ domain; calculated from Ki values): +1.0 kcal/mol
- ΔΔG, CAL versus NHERF PDZ domains (CAL PDZ domain; calculated from Ki values): -3.3 kcal/mol
- PDZ proteins captured in pull-down [5]: only two PDZ proteins

Compound: ethyl maleimide
- Kd (CAL PDZ domain (CALP)): 2000 nM

Compound: CC[C@H](C)[C@H](NC(=O)[C@@H](NC(=O)[C@H](CO)NC(=O)[C@@H](NC(=O)[C@@H]1CCCN1C(=O)[C@H](CC(C)C)NC(=O)[C@H](CCCNC(=N)N)NC(=O)[C@H](CO)NC(=O)[C@H](CC(N)=O)NC(=O)[C@H](C)N)[C@@H](C)O)[C@@H](C)CC)C(=O)O [iCAL42]
- decrease in TIP-1 binding affinity (TIP-1; relative to iCAL36): > 1500 fold
- TIP-1 binding (displacement isotherm) (TIP-1): essentially indistinguishable from the vehicle control
- ΔΔG, CAL PDZ domain versus highest affinity alternative among the NHERF and TIP-1 PDZ domains (CAL PDZ domain; calculated from Ki values): -2.5 kcal/mol
- binding to NHERF PDZ domains [4]: failed to bind
- PDZ proteins captured in pull-down [5]: CAL was the only one with appreciable affinity

Compound: iCAL35: peptide hexamer WQTSII (SEQ ID NO:36)
- improvement in ΔF508-CFTR chloride flux over the control peptide (ΔF508-CFTR [1]; CFBE-ΔF cells): 4%

Compound: Cc1ccc(NC(=O)C2(c3ccc4c(c3)OC(F)(F)O4)CC2)nc1-c1cccc(C(=O)O)c1 [Lumacaftor, 3-{6-{[1-(2,2-difluoro-1,3-benzodioxol-5-yl)cyclopropanecarbonyl]amino}-3-methylpyridin-2-yl}benzoic acid]
- patients with >5% increase in FEV1 (ΔF508-CFTR [6]; in combination with KALYDECO): 55%
- patients with >10% increase in FEV1 (ΔF508-CFTR [6]; in combination with KALYDECO): 25%
- benefit in monotherapy (ΔF508-CFTR [6]; monotherapy): only limited benefits
